Experimental data from PubChem BioAssay AID328 (DTP/NCI, 2004).
Where “and” joins values, the source holds several entries; their conditions need not be identical. Identical values can stand only once. Toxic doses and inconclusive results are not listed.

Test system: BDF1 mice, P388 leukemia ip, median survival T/C
Test: NCI In Vivo Anticancer Drug Screen. Data for tumor model P388 Leukemia (intraperitoneal) in B6D2F1 (BDF1) mice
Settings: endpoint: median survival time, higher = longer survival
Method in brief: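 Survival ratio, drug arm over vehicle arm, in mice with a transplanted tumour.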

[1] = dose: 12.5 mg/kg/injection, schedule: Q01DX009 (ip), vehicle: saline with Tween-80
[2] = dose: 25.0 mg/kg/injection, schedule: Q01DX009 (ip), vehicle: saline with Tween-80
[3] = dose: 50.0 mg/kg/injection, schedule: Q01DX009 (ip), vehicle: saline with Tween-80
[4] = dose: 100.0 mg/kg/injection, schedule: Q01DX009 (ip), vehicle: saline with Tween-80
[5] = dose: 200.0 mg/kg/injection, schedule: Q01DX009 (ip), vehicle: saline with Tween-80
[6] = dose: 100.0 mg/kg/injection, schedule: Q04DX003 (ip), vehicle: saline with Tween-80
[7] = dose: 200.0 mg/kg/injection, schedule: Q04DX003 (ip), vehicle: saline with Tween-80
[8] = dose: 400.0 mg/kg/injection, schedule: Q01DX009 (ip), vehicle: saline with Tween-80
[9] = dose: 400.0 mg/kg/injection, schedule: Q04DX003 (ip), vehicle: saline with Tween-80
[10] = dose: 100.0 mg/kg/injection, schedule: Q01DX001 (ip), vehicle: saline with Tween-80
[11] = dose: 400.0 mg/kg/injection, schedule: Q01DX001 (ip), vehicle: saline with Tween-80
[12] = dose: 100.0 mg/kg/injection, schedule: Q01DX009 (ip), vehicle: Klucel (hydroxypropylcellulose) (HPC)
[13] = dose: 100.0 mg/kg/injection, schedule: Q04DX003 (ip), vehicle: Klucel (hydroxypropylcellulose) (HPC)
[14] = dose: 200.0 mg/kg/injection, schedule: Q01DX009 (ip), vehicle: Klucel (hydroxypropylcellulose) (HPC)
[15] = dose: 200.0 mg/kg/injection, schedule: Q04DX003 (ip), vehicle: Klucel (hydroxypropylcellulose) (HPC)
[16] = dose: 400.0 mg/kg/injection, schedule: Q04DX003 (ip), vehicle: Klucel (hydroxypropylcellulose) (HPC)

CC(=O)O.CC(=O)O.[Co+2].[NH-]C(CCC(N)=O)C(=O)O.[NH-]C(CCC(N)=O)C(=O)O (configuration not stated)
T/C [1]: 87 % of control
T/C [2]: 93 % of control
T/C [3]: 98 % of control

CC1(C)N=C(N)N=C(N)N1c1ccc(OCCNC(=O)Nc2ccc(S(=O)(=O)F)cc2)c(Cl)c1
T/C (dose: 4.8 mg/kg/injection, schedule: Q01DX009 (ip), vehicle: saline): 118 % of control
T/C (dose: 25.0 mg/kg/injection, schedule: Q01DX009 (ip), vehicle: saline): 175 % of control
T/C (dose: 50.0 mg/kg/injection, schedule: Q01DX009 (ip), vehicle: saline): 180 % of control
T/C (dose: 66.0 mg/kg/injection, schedule: Q01DX009 (ip), vehicle: saline): 168 % of control
T/C (dose: 66.0 mg/kg/injection, schedule: Q04DX003 (ip), vehicle: saline): 123 % of control
T/C (dose: 100.0 mg/kg/injection, schedule: Q01DX009 (ip), vehicle: saline): 159 % of control and 200 % of control

Nc1nc(N)c2cc(S(=O)(=O)c3ccc(Cl)c(Cl)c3)ccc2n1
T/C [3]: 100 % of control
T/C [4]: 91 % of control
T/C [5]: 102 % of control

O=[N+]([O-])c1ccc(/C=[N+](\[O-])CCO)cc1
T/C (dose: 6.25 mg/kg/injection, schedule: Q01DX009 (ip), vehicle: saline with Tween-80): 101 % of control
T/C [1]: 101 % of control
T/C [2]: 100 % of control

Cc1c(Cl)c(Cl)c(Cl)c(Cl)c1Cl
T/C [4]: 118 % of control
T/C [6]: 104 % of control
T/C [5]: 95 % of control
T/C [7]: 104 % of control
T/C [8]: 95 % of control
T/C [9]: 95 % of control

COC(=O)c1cccc(OP(=O)(N(C)C)N(C)C)c1
T/C [3]: 106 % of control
T/C [4]: 114 % of control

CN(Cc1ccccc1)c1ccc(/C=C/c2ccnc3ccccc23)cc1
T/C (dose: 12.5 mg/kg/injection, schedule: Q01DX001 (ip), vehicle: saline with Tween-80): 93 % of control
T/C (dose: 25.0 mg/kg/injection, schedule: Q01DX001 (ip), vehicle: saline with Tween-80): 89 % of control
T/C (dose: 50.0 mg/kg/injection, schedule: Q01DX001 (ip), vehicle: saline with Tween-80): 88 % of control
T/C [10]: 93 % of control
T/C [11]: 94 % of control

CC(C)CC(C)CC(O)CC(C)C (configuration not stated)
T/C [12]: 110 % of control
T/C [13]: 100 % of control
T/C [14]: 100 % of control
T/C [15]: 100 % of control
T/C (dose: 400.0 mg/kg/injection, schedule: Q01DX009 (ip), vehicle: Klucel (hydroxypropylcellulose) (HPC)): 115 % of control
T/C [16]: 95 % of control

CS(=O)(=O)CCN(N=O)C(=N)N[N+](=O)[O-]
T/C (dose: 19.0 mg/kg/injection, schedule: Q04DX003 (ip), vehicle: saline with Tween-80): 113 % of control
T/C (dose: 150.0 mg/kg/injection, schedule: Q04DX003 (ip), vehicle: saline with Tween-80): 150 % of control

Cc1nc(N)c(=O)[nH]c1C
T/C [4]: 95 % of control
T/C [6]: 108 % of control
T/C [5]: 90 % of control
T/C [7]: 95 % of control
T/C [8]: 90 % of control
T/C [9]: 91 % of control

c1cc2c(cc1CNC1=NCCO1)OCO2
T/C [10]: 100 % of control
T/C (dose: 200.0 mg/kg/injection, schedule: Q01DX001 (ip), vehicle: saline with Tween-80): 95 % of control
T/C [11]: 118 % of control

CCCCCCCCC(=O)CCC
T/C (dose: 50.0 mg/kg/injection, schedule: Q04DX003 (ip), vehicle: Klucel (hydroxypropylcellulose) (HPC)): 100 % of control
T/C [13]: 109 % of control
T/C [15]: 100 % of control
T/C [16]: 87 % of control

COc1ccc(Cc2ccc(O)cc2)cc1
T/C (dose: 100.0 mg/kg/injection, schedule: Q04DX003 (ip), vehicle: other): 100 % of control
T/C (dose: 200.0 mg/kg/injection, schedule: Q04DX003 (ip), vehicle: other): 119 % of control
T/C (dose: 400.0 mg/kg/injection, schedule: Q04DX003 (ip), vehicle: other): 119 % of control

CC1=CCC2C(=O)C=CC(=O)C2C1 (configuration not stated)
T/C (dose: 0.57 mg/kg/injection, schedule: Q01DX009 (ip), vehicle: Klucel (hydroxypropylcellulose) (HPC)): 120 % of control
T/C (dose: 0.85 mg/kg/injection, schedule: Q01DX009 (ip), vehicle: Klucel (hydroxypropylcellulose) (HPC)): 115 % of control
T/C (dose: 2.0 mg/kg/injection, schedule: Q01DX009 (ip), vehicle: Klucel (hydroxypropylcellulose) (HPC)): 118 % of control
T/C (dose: 3.12 mg/kg/injection, schedule: Q04DX003 (ip), vehicle: Klucel (hydroxypropylcellulose) (HPC)): 100 % of control
T/C (dose: 4.12 mg/kg/injection, schedule: Q01DX009 (ip), vehicle: Klucel (hydroxypropylcellulose) (HPC)): 109 % of control and 110 % of control
T/C (dose: 5.0 mg/kg/injection, schedule: Q04DX003 (ip), vehicle: Klucel (hydroxypropylcellulose) (HPC)): 104 % of control
T/C (dose: 6.25 mg/kg/injection, schedule: Q01DX009 (ip), vehicle: Klucel (hydroxypropylcellulose) (HPC)): 95 % of control and 120 % of control
T/C (dose: 6.25 mg/kg/injection, schedule: Q04DX003 (ip), vehicle: Klucel (hydroxypropylcellulose) (HPC)): 109 % of control
T/C (dose: 9.37 mg/kg/injection, schedule: Q01DX009 (ip), vehicle: Klucel (hydroxypropylcellulose) (HPC)): 104 % of control and 115 % of control
T/C (dose: 10.0 mg/kg/injection, schedule: Q04DX003 (ip), vehicle: Klucel (hydroxypropylcellulose) (HPC)): 109 % of control
T/C (dose: 12.5 mg/kg/injection, schedule: Q01DX009 (ip), vehicle: Klucel (hydroxypropylcellulose) (HPC)): 90 % of control
T/C (dose: 12.5 mg/kg/injection, schedule: Q04DX003 (ip), vehicle: Klucel (hydroxypropylcellulose) (HPC)): 90 % of control
T/C (dose: 18.0 mg/kg/injection, schedule: Q01DX009 (ip), vehicle: Klucel (hydroxypropylcellulose) (HPC)): 113 % of control

COC(=O)C12OCC34C(CC5=C(C)C(=O)C(O)=CC5(C)C3C(O)C1O)OC(=O)C(OC(=O)c1ccccc1)C24 (configuration not stated)
T/C (dose: 0.04 mg/kg/injection, schedule: Q01DX009 (ip), vehicle: saline + alcohol): 111 % of control
T/C (dose: 4.0 mg/kg/injection, schedule: Q01DX009 (ip), vehicle: saline + alcohol): 100 % of control

CCOCCO
T/C (dose: 5.0 mg/kg/injection, schedule: Q01DX009 (ip), vehicle: saline): 103 % of control
T/C (dose: 5.0 mg/kg/injection, schedule: Q04DX003 (ip), vehicle: saline): 92 % of control
T/C (dose: 10.0 mg/kg/injection, schedule: Q01DX009 (ip), vehicle: saline): 88 % of control
T/C (dose: 10.0 mg/kg/injection, schedule: Q04DX003 (ip), vehicle: saline): 92 % of control
T/C (dose: 20.0 mg/kg/injection, schedule: Q04DX003 (ip), vehicle: saline): 88 % of control

CNC1=C2NC(=O)/C(C)=C\C=C\C(C)C(O)C(C)C(O)C(C)C(OC(C)=O)C(C)C(OC)/C=C/OC3(C)Oc4c(C)c(O)c(c(c4C3=O)C1=O)C2=O (configuration not stated)
T/C [3]: 95 % of control
T/C [4]: 90 % of control
T/C [5]: 100 % of control

CC(=O)O[C@H]1CC[C@H]2[C@@H]3CC[C@H]4CC=C(C#N)C[C@]4(C)[C@H]3CC[C@]12C
T/C (dose: 0.75 mg/kg/injection, schedule: Q01DX009 (ip), vehicle: Klucel (hydroxypropylcellulose) (HPC)): 95 % of control
T/C (dose: 1.5 mg/kg/injection, schedule: Q01DX009 (ip), vehicle: Klucel (hydroxypropylcellulose) (HPC)): 92 % of control and 100 % of control
T/C (dose: 3.0 mg/kg/injection, schedule: Q01DX009 (ip), vehicle: Klucel (hydroxypropylcellulose) (HPC)): 104 % of control
T/C (dose: 6.0 mg/kg/injection, schedule: Q01DX009 (ip), vehicle: Klucel (hydroxypropylcellulose) (HPC)): 103 % of control
T/C (dose: 25.0 mg/kg/injection, schedule: Q01DX009 (ip), vehicle: Klucel (hydroxypropylcellulose) (HPC)): 88 % of control
T/C (dose: 50.0 mg/kg/injection, schedule: Q01DX009 (ip), vehicle: Klucel (hydroxypropylcellulose) (HPC)): 100 % of control
T/C [12]: 95 % of control
T/C [13]: 109 % of control
T/C [14]: 100 % of control
T/C [15]: 109 % of control
T/C [16]: 86 % of control

CC(C)(C)OC(=O)C(CC(=O)O)=C(c1ccccc1)c1ccccc1
T/C [13]: 95 % of control
T/C [15]: 108 % of control
T/C [16]: 95 % of control

Cc1cc(-c2ccc(NC(=O)c3cccc([N+](=O)[O-])c3)c(C)c2)ccc1NC(=O)c1cccc([N+](=O)[O-])c1
T/C (dose: 50.0 mg/kg/injection, schedule: Q01DX005 (ip), vehicle: saline with Tween-80): 96 % of control
T/C (dose: 100.0 mg/kg/injection, schedule: Q01DX005 (ip), vehicle: saline with Tween-80): 94 % of control
T/C (dose: 200.0 mg/kg/injection, schedule: Q01DX005 (ip), vehicle: saline with Tween-80): 105 % of control
